Experimental data as given in ChEMBL document CHEMBL1201862, “PubChem BioAssay data set” (2004).
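Five concentrations, 48 hours, 96-well plates. At the GI50, growth is halved.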 Calls of active or inactive are those of the source. Cut-off read from the data, not from the text of the source: active = GI50 up to about 1.1 µM and inactive = higher.

Key:
Experiment in all cases: inhibition of tumour cell growth, NCI panel, 48 h
A549 = test system: A549
ACHN = test system: ACHN
BT-549 = test system: BT-549
HCC 2998 = test system: HCC 2998
HOP-92 = test system: HOP-92
HT-29 = test system: HT-29
IGROV-1 = test system: IGROV-1
K562 = test system: K562
KM12 = test system: KM12
MDA-MB-231 = test system: MDA-MB-231
NCI-H23 = test system: NCI-H23
NCI/ADR-RES = test system: NCI/ADR-RES
OVCAR-3 = test system: OVCAR-3
OVCAR-8 = test system: OVCAR-8
RPMI-8226 = test system: RPMI-8226
SF-539 = test system: SF-539
SN12C = test system: SN12C
SNB-75 = test system: SNB-75
U-251 = test system: U-251
DMS-273 = test system: DMS-273

Structure (SMILES)	GI50 (A549)	GI50 (ACHN)	GI50 (BT-549)	GI50 (HCC 2998)	GI50 (HOP-92)	GI50 (HT-29)	GI50 (IGROV-1)	GI50 (K562)	GI50 (KM12)	GI50 (MDA-MB-231)	GI50 (NCI-H23)	GI50 (NCI/ADR-RES)	GI50 (OVCAR-3)	GI50 (OVCAR-8)	GI50 (RPMI-8226)	GI50 (SF-539)	GI50 (SN12C)	GI50 (SNB-75)	GI50 (U-251)	GI50 (DMS-273)
CCCC(=O)NC1CCc2cc(OC)c(OC)c(OC)c2-c2ccc(OC)c(=O)cc21 (stereo unspecified)	0.00538 µM (active)	0.019 µM (active)	0.01 µM (active)	0.00186 µM (active)	0.447 µM (active)	0.00036 µM (active)	0.000828 µM (active)	0.00041 µM (active)	0.000449 µM (active)	0.0004 µM (active)	0.000715 µM (active)	0.118 µM (active)	0.000384 µM (active)	0.00252 µM (active)	0.01 µM (active)	0.000296 µM (active)	0.000782 µM (active)	1.82 µM (inactive)	0.000344 µM (active)	
Cc1c(C(=O)Nc2ccc(Cl)c(C(F)(F)F)c2)oc2cc(O)ccc2/c1=N\NC(N)=S	> 100 µM (inactive)	> 100 µM (inactive)		> 100 µM (inactive)		> 100 µM (inactive)	> 100 µM (inactive)	> 100 µM (inactive)	> 100 µM (inactive)		> 100 µM (inactive)		> 100 µM (inactive)	> 100 µM (inactive)	> 100 µM (inactive)	> 100 µM (inactive)	> 100 µM (inactive)	> 100 µM (inactive)	> 100 µM (inactive)	> 100 µM (inactive)
COc1cc(/C=N\c2ccc(C(C)C)cc2)cc(OC)c1OC	> 100 µM (inactive)	> 100 µM (inactive)			> 88.3 µM (inactive)	> 100 µM (inactive)	> 100 µM (inactive)	> 50.4 µM (inactive)	> 100 µM (inactive)		> 100 µM (inactive)		> 100 µM (inactive)	> 100 µM (inactive)	> 42 µM (inactive)	> 100 µM (inactive)	> 100 µM (inactive)	98.4 µM (inactive)	> 100 µM (inactive)	> 72.4 µM (inactive)
Clc1ccc(C2=Nc3ccccc3SC(c3cccs3)C2)cc1 (stereo unspecified)	17.2 µM (inactive)	15.3 µM (inactive)		17 µM (inactive)		14.3 µM (inactive)	14 µM (inactive)	5.16 µM (inactive)	10.7 µM (inactive)		14.1 µM (inactive)		11.5 µM (inactive)	16.2 µM (inactive)	2.42 µM (inactive)	16.8 µM (inactive)	15.6 µM (inactive)	16.9 µM (inactive)	11.8 µM (inactive)	14 µM (inactive)
N=C(N)NNC(=O)CCCCCCCC(=O)NNC(=N)N	> 100 µM (inactive)	> 100 µM (inactive)		> 100 µM (inactive)		> 100 µM (inactive)	> 100 µM (inactive)	> 100 µM (inactive)	> 100 µM (inactive)		> 100 µM (inactive)					> 100 µM (inactive)	> 100 µM (inactive)		> 100 µM (inactive)	> 100 µM (inactive)
O=C(O)CSCC(=O)Nc1ccc2cccc3c2c1CC3	> 100 µM (inactive)	> 100 µM (inactive)	> 100 µM (inactive)	> 100 µM (inactive)	> 100 µM (inactive)	> 100 µM (inactive)	> 100 µM (inactive)	> 100 µM (inactive)	> 100 µM (inactive)	> 100 µM (inactive)	> 100 µM (inactive)	> 100 µM (inactive)	> 100 µM (inactive)	> 100 µM (inactive)	> 100 µM (inactive)	> 100 µM (inactive)	> 100 µM (inactive)	> 100 µM (inactive)	> 100 µM (inactive)	
COc1ccc2c3c1OC1C(=O)C=CC4(O)C(C2)NCC[C@@]314 (stereo partly specified)	4.61 µM (inactive)	2.23 µM (inactive)	1.95 µM (inactive)	2.1 µM (inactive)	5.26 µM (inactive)	2.54 µM (inactive)	5.71 µM (inactive)	2.51 µM (inactive)	2.84 µM (inactive)	2.95 µM (inactive)	2.03 µM (inactive)	4 µM (inactive)	1.52 µM (inactive)	1.69 µM (inactive)	1.12 µM (inactive)	1.55 µM (inactive)	1.51 µM (inactive)	1.25 µM (inactive)	2.13 µM (inactive)	
Cc1ccc([S+](c2ccccc2)c2cc(C)ccc2C)cc1 (stereo unspecified)	7.03 µM (inactive)	11.2 µM (inactive)		1.7 µM (inactive)			0.117 µM (active)	0.374 µM (active)	2.85 µM (inactive)				2.26 µM (inactive)	4.59 µM (inactive)	3.66 µM (inactive)	13.7 µM (inactive)	5.94 µM (inactive)	< 0.01 µM (active)		0.859 µM (active)
COC(=N)C12C(N)=NC(OC)(OC)C1(C#N)C21C(=O)N(c2ccccc2)N=C1C (stereo unspecified)	> 100 µM (inactive)	> 100 µM (inactive)	> 100 µM (inactive)	> 100 µM (inactive)	> 100 µM (inactive)	> 100 µM (inactive)	> 100 µM (inactive)	> 100 µM (inactive)	> 100 µM (inactive)	> 100 µM (inactive)	> 100 µM (inactive)	> 100 µM (inactive)	> 100 µM (inactive)	> 100 µM (inactive)	> 100 µM (inactive)	> 100 µM (inactive)	> 100 µM (inactive)	> 100 µM (inactive)	> 100 µM (inactive)	
N=C(N)N/N=C/c1c[nH]c2ccccc12	> 100 µM (inactive)	> 100 µM (inactive)		> 100 µM (inactive)		> 100 µM (inactive)	> 100 µM (inactive)	> 100 µM (inactive)	> 100 µM (inactive)		> 100 µM (inactive)		> 100 µM (inactive)	> 100 µM (inactive)	> 100 µM (inactive)	> 100 µM (inactive)	> 100 µM (inactive)	> 100 µM (inactive)	> 100 µM (inactive)	> 100 µM (inactive)
COc1cc(-c2oc(/C=N/c3ccccc3)c([N+](=O)[O-])c2-c2ccc(O)c(OC)c2)ccc1O	39.2 µM (inactive)	16.1 µM (inactive)	29.6 µM (inactive)	15 µM (inactive)	13.8 µM (inactive)	17.1 µM (inactive)	15.4 µM (inactive)	36.1 µM (inactive)	21.7 µM (inactive)	27.5 µM (inactive)	16.3 µM (inactive)	22.8 µM (inactive)	35.4 µM (inactive)	17.3 µM (inactive)	25.1 µM (inactive)	17.4 µM (inactive)	27 µM (inactive)	11.5 µM (inactive)	23.4 µM (inactive)	
O=C(O)C1=NN(c2ccc(S(=O)(=O)O)cc2)C2(C1)SCC(=O)N2c1nc2ccccc2s1 (stereo unspecified)	> 100 µM (inactive)	> 100 µM (inactive)	> 100 µM (inactive)	> 100 µM (inactive)	> 100 µM (inactive)	> 100 µM (inactive)	> 100 µM (inactive)	> 100 µM (inactive)	> 100 µM (inactive)	> 100 µM (inactive)	> 100 µM (inactive)	> 100 µM (inactive)	> 100 µM (inactive)	> 100 µM (inactive)	> 100 µM (inactive)	> 100 µM (inactive)	> 100 µM (inactive)	> 100 µM (inactive)	> 100 µM (inactive)	
O=C1/C(=C/c2ccc(O)c(O)c2)CC/C1=C\c1ccc(O)c(O)c1	15.7 µM (inactive)	4.98 µM (inactive)	5.04 µM (inactive)	> 21.6 µM (inactive)	4.17 µM (inactive)	18.5 µM (inactive)	3.74 µM (inactive)	3.24 µM (inactive)	9.79 µM (inactive)	28.7 µM (inactive)	3.09 µM (inactive)	8.24 µM (inactive)	5.09 µM (inactive)	10 µM (inactive)	2.23 µM (inactive)	2.49 µM (inactive)	7.29 µM (inactive)	6.7 µM (inactive)	3.97 µM (inactive)	
O=C(/C=C/c1ccc[nH]1)c1ccccc1	> 100 µM (inactive)	> 100 µM (inactive)			56.2 µM (inactive)	> 100 µM (inactive)		> 100 µM (inactive)	> 100 µM (inactive)		> 100 µM (inactive)		> 100 µM (inactive)	> 100 µM (inactive)	95.9 µM (inactive)	> 100 µM (inactive)	> 100 µM (inactive)	29.6 µM (inactive)	> 100 µM (inactive)	> 100 µM (inactive)
O=C(O)CCc1nc2ccccc2[nH]1 [PROCODAZOLE]	> 100 µM (inactive)	> 100 µM (inactive)	> 100 µM (inactive)	> 100 µM (inactive)	> 100 µM (inactive)	> 100 µM (inactive)	> 100 µM (inactive)	> 100 µM (inactive)	> 100 µM (inactive)	> 100 µM (inactive)	> 100 µM (inactive)	> 100 µM (inactive)	> 100 µM (inactive)	> 100 µM (inactive)	> 100 µM (inactive)	> 100 µM (inactive)	> 100 µM (inactive)	> 100 µM (inactive)	> 100 µM (inactive)	
Nc1n[n+]([O-])c2ccccc2[n+]1[O-] [TIRAPAZAMINE]	93.5 µM (inactive)	48.6 µM (inactive)			29.7 µM (inactive)	> 100 µM (inactive)	75.5 µM (inactive)	> 100 µM (inactive)	> 100 µM (inactive)				> 100 µM (inactive)	> 100 µM (inactive)	57.4 µM (inactive)	> 100 µM (inactive)	> 100 µM (inactive)	29.6 µM (inactive)	> 100 µM (inactive)	52.2 µM (inactive)
